Assay results published in patent publication US9585854B2, “N-acetyl-L-cysteine for use in in vitro fertilization” (IASOMAI AB, priority 2012, dated 2017).
Where two headings read alike, the source gives them in different places.

What was measured:
[1] = thiol residue easily oxidized by oxygen, light and other radiations; cited from earlier work
1-cell rabbit embryos = experiment: rabbit embryo bioassay (embryotoxicity)
Source text: To verify the embryotoxicity of NAC the application of two embryotoxicity techniques—rabbit embryo bioassay and human sperm motility bioassay—were used.

human spermatozoa = experiment: human sperm motility bioassay (toxicity test); assay type: cell-based
Description: The eventual occurrence of NAC embryotoxicity was preliminary tested.
Assessments of human sperm motility were performed on fresh samples taken from 3 healthy donors with good seminal parameters including sperm motility and velocity. Migration or “Swim-up” on human sperm preparation medium was applied to select motile spermatozoa. After selection each semen sample was divided into 3 aliquots transferred to Eppendorf tubes. In addition to one control tube, two tubes had NAC added at concentrations of 100 and 1,000 nM. Tubes were incubated in a 5% CO2 environment, with constant temperature and humidity conditions for 24 hours. Sperm motility was assessed using a contrast phase microscope at a 400 times magnification after 1, and 24 hours of exposure to NAC. Assessment was performed over a fixed time interval of 2 minutes. Nine samples were assessed for sperm motility and velocity by 36 measurements (2 measurements at 1 and 24 h per sample).

[2] = cited from earlier work
Jurkat cells = experiment: Cell adhesion assay of Jurkat cells on fibronectin; assay type: cell-based, human; conditions: NAC 5 mM for 2 h pretreatment, eosin Y absorbance 540 nm, vs control
Description: Cell Adhesion Assay. Seven μg/ml of human fibronectin (Sigma Aldrich Chem Co) were saturated with 2% bovine serum albumin (BSA) for 30 min at 37° C. and washed twice with phosphate buffered saline (PBS). Jurkat cells were then seeded onto the wells for 2 h at 37° C.; then, nonadherent cells were aspirated, and the wells were rinsed with PBS. Adhering cells were fixed overnight with 2% formaldehyde and stained with eosin Y for 30 min. Eosin Y was then extracted by addition of a mixture of 1% of glacial acetic acid and 50% ethanol, and absorbance was measured at 540 nm.
NAC increases the adhesions of Jurkat cells on fibronectin. The adhesion assay was performed by using control or NAC (5 mM for 2 h)-treated Jurkat cells. […] Cell adhesion was then quantitated by staining the cells attached to junction protein-coated plates with eosin Y and reading the absorbance in a microplate reader.
Cells were solubilized and eosin Y and absorbance was quantitated at 540 nm. No antibody, illustrated by black bars; anti-VLA-4 (10 ng/ml) illustrated by grey bars; and anti-VLA-4 (10 μg/ml) illustrated by white bars. Data are means+/−SE(n=3).*, P less than 0.01 vs. control. From FIG. 1 it can be concluded that NAC treatment increases adhesion (junction protein molecules).

[3] = system: Isolated uteri from virgin Wistar rats; experiment: isolated organ bath study of uterine contractions; design: species or system rat
Description: Animals were kept at 22° C., housed 3 per cage and fed ad libitum. Isolated uteri from virgin Wistar rats (200-280 g) in estrous, which was determined by examination of a daily vaginal smear, were used.
Protamine sulphate (PS) and NAC were dissolved in pure water.
All rats were sacrificed by cervical dislocation. The uterine horns were excised, carefully cleaned and mounted vertically in a 10 ml volume organ bath containing De Jalon's solution (NaCl 154 mM, KCl 5.6 mM, CaCl2×2H2O 0.41 mM, NaHCO 2 5.9 mM and glucose 2.8 mM), under 1 g tension, aerated with 95% oxygen and 5% carbon dioxide at 37° C. […] After 10 min increasing concentrations of PS were added until the total cessation of contractions was observed.
Myometrial tension was recorded isometrically with an organ bath and transducer.
Effects of treatments on uterine contractions were calculated as percentages for control, untreated and contracting conditions. Each data value is expressed as the mean±SEM. differences between groups were analyzed by two-way ANOVA. EC50 values were compared using one-way ANOVA

[4] = system: cancer cells of epithelial origin; conditions: cited from earlier work
[5] = design: species or system human; conditions: in vivo
Source text: GSH is e.g. normally conjugated to reactive metabolites formed by paracetamol and helps detoxify them. When paracetamol is overdosed GSH is however depleted and the paracetamol metabolites start reacting with cellular proteins, eventually leading to cell death. In the treatment of fulminant hepatic failure after paracetamol poisoning NAC acts instead of GSH in the detoxification of paracetamol metabolites.
The composition of the present invention, comprising NAC for the treatment of IVF according to one embodiment to be administered intravenously at a dose between approximately 50 and 150 mg/kg/day.
For overcoming this in cases of oral administration, an option is to provide NAC in a formulation with gastric protection, suitable for preventing NAC release/solubility in the stomach. Such formulations are well known in the art and may be used with the present invention. For example, tablet coatings that are resistant to gastric fluids and allow release of the drug only in the intestine, after its transit through the stomach, may be used. Commonly used formulations include polymers such as cellulose derivatives, methacrylate amino ester copolymers. […]

[6] = system: normal human epidermal keratinocytes; experiment: micro array gene expression analysis (Affymetrix GeneChip); assay type: cell-based; conditions: vs untreated
Description: The present experiments were carried out to elucidate if NAC treatment influence integrin and fibronectin gene expression by gene expression analysis using the Affymetrix GeneChip platform.
A micro array based gene expression analysis of the normal human epidermal keratinocytes was performed 1 and 12 hours after addition of NAC, compared to untreated (i.e. control samples at the same time points). Data obtained from GeneChip analysis were processed using the RNA analysis approach and samples were normalized to their corresponding controls. Filtering was done based on two criteria (p-value <0.1 and >1.5 fold up- or >0.5 down-regulation) for each time point. The labelling and hybridisation was done in duplicate.

[7] = concentrations up to 50-fold therapeutic blood concentrations

CC(=O)N[C@@H](CS)C(=O)O [NAC, N-acetyl-L-cysteine]
stability [1]: not a stable molecule | percentage of hatched rabbit blastocysts (1-cell rabbit embryos): not to decrease the percentage of hatched rabbit blastocysts | embryotoxic effect (1-cell rabbit embryos; [7]): failed to detect an embryotoxic effect | adverse influence on human spermatozoa (human spermatozoa): failed to show an adverse influence | human sperm motility or velocity compared to controls (human spermatozoa; NAC 100 and 1,000 nM, 1 and 24 hours of exposure): no effects | embryotoxic effect (human spermatozoa; [7]): failed to detect an embryotoxic effect | side effects ([2]; daily total NAC dose, per os): virtually free of side effects | undesired side effect ([2]; general, doses in paracetamol poisoning about 40 g/day for 70 kg): virtually absent of undesired side effect | side effects ([2]; intravenous, higher limit 150 mg/kg/day): virtually no side effects | augmentation of cell adhesion (Jurkat cells): ~35% | effect of pre-treatment on PS-induced relaxation ([3]; NAC pre-treatment 1 μg/ml, spontaneously active uteri): increased PS-induced relaxation | effect of pre-treatment on PS-induced relaxation ([3]; calcium ion-induced uterine contractions): modulated PS-induced relaxation | effect on proliferation of cancer cells of epithelial origin ([4]; Cell Death and Differentiation 2005): marked antiproliferative effect | cell-cell and cell-substratum adhesion complexes ([4]; NAC-treated cancer cells): considerable increase | side effect of high oral doses [5]: may cause abdominal pain | integrin alpha 2 gene expression ([6]; 1 hr after NAC treatment): up-regulated | fibronectin gene expression ([6]; 12 hours after NAC): upregulated
